Consider eleven compounds from patent US9334279B2, “Hepatitis C virus inhibitors” (BRISTOL-MYERS SQUIBB COMPANY, priority 2012, dated 2016).

A word on the EC50: it is the concentration that produces a half-maximal response.

Assay [1] concerns HCV GT1b(Con1) replicon. The assay can be described thus: HCV replicon luciferase reporter assay, genotype 1b. Format: cell-based, HCV genotype 1b. Particulars: Hepatitis C virus, 72 h, HUH-7 cells, Renilla luciferase, 3 days incubation, read-out: LE_1b (EC50, range). The gist of the method:
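HUH-7 cells stably carrying a Con1 GT1b replicon with Renilla luciferase and Ser1179Ile adaptive mutation; 3.0×10^3 cells/well, DMEM 4% FCS, 0.5% DMSO, twenty-point 3-fold titration, 3 days 37 °C. Luminescence 2 h after 7.5 μM EnduRen; EC50 by four-parameter logistic fit. CC50 from multiplexed Cell Titer-Blue fluorescence (8 h).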
For orientation: Replicon systems follow genome replication, usually without infectious particles.

Assay [2] has as its system HCV GT1a(H77) replicon. The assay can be described thus: HCV replicon luciferase reporter assay, genotype 1a. Format: cell-based, HCV genotype 1a. Particulars: Hepatitis C virus, 72 h, HUH-7 cells, Renilla luciferase, 3 days incubation, read-out: LE_1a (EC50, range). The gist of the method:
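Huh-7 cells stably carried a GT1a(H77) Renilla luciferase replicon with NS3 P1496L and NS5A S2204I adaptive mutations. Luminescence was read after 2 h with 7.5 μM EnduRen, and EC50 came from a four-parameter logistic fit; CC50 came from multiplexed Cell Titer-Blue (8 h).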

In the case of `CC[C@@H]1O[C@H](C)CC/C=C\[C@@H]2C[C@@]2(C(=O)NS(=O)(=O)C2(C)CC2)NC(=O)[C@@H]2C[C@@H](Oc3cc(-c4ccc(C(F)(F)F)cc4)nc(-c4nccs4)c3)CN2C(=O)[C@H]1NC(=O)OC1(C(F)(F)F)CCCOC1` (stereo partly drawn) [Compound 1040, 3-(trifluoromethyl)tetrahydro-2H-pyran-3-yl ((2R,6S,7S,9R,13aS,14aR,16aS,Z)-7-ethyl-9-methyl-14a-(((1-methylcyclopropyl)sulfonyl)carbamoyl)-5,16-dioxo-2-((2-(thiazol-2-yl)-6-(4-(trifluoromethyl)phenyl)pyridin-4-yl)oxy)-2,3,5,6,7,9,10,11,13a,14,14a,15,16,16a-tetradecahydro-1H-cyclopropa[i]pyrrolo[1,2-e][1,5,8]oxadiazacyclopentadecin-6-yl)carbamate], the EC50 in assay [1] fell in the range of 0.1 to 0.5 nM; in assay [2], 0.51 to 1 nM.

Consider `CC(C)Oc1ccc(-c2cc(O[C@@H]3C[C@H]4C(=O)N[C@]5(C(=O)NS(=O)(=O)C6(C)CC6)C[C@H]5/C=C\CC[C@@H](C)C[C@@H](C)[C@H](NC(=O)OC5(C(F)(F)F)CCCOC5)C(=O)N4C3)cc(-c3nccs3)n2)cc1` (stereo partly drawn) [Compound 1041, 3-(trifluoromethyl)tetrahydro-2H-pyran-3-yl ((2R,6S,7R,9R,13aS,14aR,16aS,Z)-2-((2-(4-isopropoxyphenyl)-6-(thiazol-2-yl)pyridin-4-yl)oxy)-7,9-dimethyl-14a-(((1-methylcyclopropyl)sulfonyl)carbamoyl)-5,16-dioxo-1,2,3,5,6,7,8,9,10,11,13a,14,14a,15,16,16a-hexadecahydrocyclopropa[e]pyrrolo[1,2-a][1,4]diazacyclopentadecin-6-yl)carbamate], for which the EC50 in assay [1] and in assay [2] was 0.51 to 1 nM each time.

With `Cc1cnc(-c2cc(O[C@@H]3C[C@H]4C(=O)N[C@]5(C(=O)NS(=O)(=O)C6(C)CC6)C[C@H]5/C=C\CC[C@@H](C)C[C@@H](C)[C@H](NC(=O)OC(C)(C)C(F)(F)F)C(=O)N4C3)ccn2)s1` [Compound 1043, 1,1,1-trifluoro-2-methylpropan-2-yl ((2R,6S,7R,9R,13aS,14aR,16aS,Z)-7,9-dimethyl-14a-(((1-methylcyclopropyl)sulfonyl)carbamoyl)-2-((2-(5-methylthiazol-2-yl)pyridin-4-yl)oxy)-5,16-dioxo-1,2,3,5,6,7,8,9,10,11,13a,14,14a,15,16,16a-hexadecahydrocyclopropa[e]pyrrolo[1,2-a][1,4]diazacyclopentadecin-6-yl)carbamate], the results for the EC50 in assay [1] and in assay [2] were 0.1 to 0.5 nM and 0.51 to 1 nM, respectively.

On to `Cc1cnc(-c2cc(O[C@@H]3C[C@H]4C(=O)N[C@]5(C(=O)NS(=O)(=O)C6(C)CC6)C[C@H]5/C=C\CC[C@@H](C)C[C@@H](C)[C@H](NC(=O)OC5(C(F)(F)F)CCCOC5)C(=O)N4C3)ccn2)s1` (stereo partly drawn) [Compound 1044, 3-(trifluoromethyl)tetrahydro-2H-pyran-3-yl ((2R,6S,7R,9R,13aS,14aR,16aS,Z)-7,9-dimethyl-14a-(((1-methylcyclopropyl)sulfonyl)carbamoyl)-2-((2-(5-methylthiazol-2-yl)pyridin-4-yl)oxy)-5,16-dioxo-1,2,3,5,6,7,8,9,10,11,13a,14,14a,15,16,16a-hexadecahydrocyclopropa[e]pyrrolo[1,2-a][1,4]diazacyclopentadecin-6-yl)carbamate], for which the concentration giving a half-maximal response (EC50) in assay [1] was 0.51 to 1 nM; in assay [2], 1.01 to 5 nM.

Consider `Cc1csc(-c2cc(O[C@@H]3C[C@H]4C(=O)N[C@]5(C(=O)NS(=O)(=O)C6(C)CC6)C[C@H]5/C=C\CC[C@@H](C)C[C@@H](C)[C@H](NC(=O)OC(C)(C)C(F)(F)F)C(=O)N4C3)ccn2)n1` [Compound 1045, 1,1,1-trifluoro-2-methylpropan-2-yl ((2R,6S,7R,9R,13aS,14aR,16aS,Z)-7,9-dimethyl-14a-(((1-methylcyclopropyl)sulfonyl)carbamoyl)-2-((2-(4-methylthiazol-2-yl)pyridin-4-yl)oxy)-5,16-dioxo-1,2,3,5,6,7,8,9,10,11,13a,14,14a,15,16,16a-hexadecahydrocyclopropa[e]pyrrolo[1,2-a][1,4]diazacyclopentadecin-6-yl)carbamate], for which the concentration giving a half-maximal response (EC50) in assay [1] fell in the range of 0.1 to 0.5 nM; in assay [2], 1.01 to 5 nM.

Turning to `CC(C)Oc1ccc(-c2cc(O[C@@H]3C[C@H]4C(=O)N[C@]5(C(=O)NS(=O)(=O)C6(C)CC6)C[C@H]5/C=C\CC[C@@H](C)C[C@@H](C)[C@H](NC(=O)OC(C)(C)C(F)(F)F)C(=O)N4C3)cc(-c3nccs3)n2)cn1` [Compound 1046, 1,1,1-trifluoro-2-methylpropan-2-yl ((2R,6S,7R,9R,13aS,14aR,16aS,Z)-2-((6′-isopropoxy-6-(thiazol-2-yl)-[2,3′-bipyridin]-4-yl)oxy)-7,9-dimethyl-14a-(((1-methylcyclopropyl)sulfonyl)carbamoyl)-5,16-dioxo-1,2,3,5,6,7,8,9,10,11,13a,14,14a,15,16,16a-hexadecahydrocyclopropa[e]pyrrolo[1,2-a][1,4]diazacyclopentadecin-6-yl)carbamate], the EC50 in assay [1] and in assay [2] was 1.01 to 5 nM throughout.

Consider `CC(C)Oc1ccc(-c2cc(O[C@@H]3C[C@H]4C(=O)N[C@]5(C(=O)NS(=O)(=O)C6(C)CC6)C[C@H]5/C=C\CC[C@@H](C)C[C@@H](C)[C@H](NC(=O)OC5(C(F)(F)F)CCCOC5)C(=O)N4C3)cc(-c3nccs3)n2)cn1` (stereo partly drawn) [Compound 1047, 3-(trifluoromethyl)tetrahydro-2H-pyran-3-yl ((2R,6S,7R,9R,13aS,14aR,16aS,Z)-2-((6′-isopropoxy-6-(thiazol-2-yl)-[2,3′-bipyridin]-4-yl)oxy)-7,9-dimethyl-14a-(((1-methylcyclopropyl)sulfonyl)carbamoyl)-5,16-dioxo-1,2,3,5,6,7,8,9,10,11,13a,14,14a,15,16,16a-hexadecahydrocyclopropa[e]pyrrolo[1,2-a][1,4]diazacyclopentadecin-6-yl)carbamate], for which the figures for the EC50 in assay [1] and in assay [2] were 0.51 to 1 nM and 1.01 to 5 nM, respectively.

Regarding `CC(C)Oc1ccc(-c2cc(O[C@@H]3C[C@H]4C(=O)N[C@]5(C(=O)NS(=O)(=O)C6(C)CC6)C[C@H]5/C=C\CC[C@@H](C)C[C@@H](C)[C@H](NC(=O)OC5(C(F)(F)F)CCCOC5)C(=O)N4C3)cc(-c3ncccn3)n2)cc1` (stereo partly drawn) [Compound 1048, 3-(trifluoromethyl)tetrahydro-2H-pyran-3-yl ((2R,6S,7R,9R,13aS,14aR,16aS,Z)-2-((2-(4-isopropoxyphenyl)-6-(pyrimidin-2-yl)pyridin-4-yl)oxy)-7,9-dimethyl-14a-(((1-methylcyclopropyl)sulfonyl)carbamoyl)-5,16-dioxo-1,2,3,5,6,7,8,9,10,11,13a,14,14a,15,16,16a-hexadecahydrocyclopropa[e]pyrrolo[1,2-a][1,4]diazacyclopentadecin-6-yl)carbamate], the EC50 in assay [1] and in assay [2] was 1.01 to 5 nM throughout.

Turning to `C[C@@H]1CC/C=C\[C@@H]2C[C@@]2(C(=O)NS(=O)(=O)C2(C)CC2)NC(=O)[C@@H]2C[C@@H](Oc3cc(-c4cccnc4)nc(-c4nccs4)c3)CN2C(=O)[C@@H](NC(=O)OC2(C(F)(F)F)CCCOC2)[C@H](C)C1` (stereo partly drawn) [Compound 1049, 3-(trifluoromethyl)tetrahydro-2H-pyran-3-yl ((2R,6S,7R,9R,13aS,14aR,16aS,Z)-7,9-dimethyl-14a-(((1-methylcyclopropyl)sulfonyl)carbamoyl)-5,16-dioxo-2-((6-(thiazol-2-yl)-[2,3′-bipyridin]-4-yl)oxy)-1,2,3,5,6,7,8,9,10,11,13a,14,14a,15,16,16a-hexadecahydrocyclopropa[e]pyrrolo[1,2-a][1,4]diazacyclopentadecin-6-yl)carbamate], the EC50 in assay [1] fell in the range of 1.01 to 5 nM; in assay [2], 5.01 to 35 nM.

In the case of `C[C@@H]1CC/C=C\[C@@H]2C[C@@]2(C(=O)NS(=O)(=O)C2(C)CC2)NC(=O)[C@@H]2C[C@@H](Oc3cc(-c4cccnc4)nc(-c4nccs4)c3)CN2C(=O)[C@@H](NC(=O)OC(C)(C)C(F)(F)F)[C@H](C)C1` [Compound 1050, 1,1,1-trifluoro-2-methylpropan-2-yl ((2R,6S,7R,9R,13aS,14aR,16aS,Z)-7,9-dimethyl-14a-(((1-methylcyclopropyl)sulfonyl)carbamoyl)-5,16-dioxo-2-((6-(thiazol-2-yl)-[2,3′-bipyridin]-4-yl)oxy)-1,2,3,5,6,7,8,9,10,11,13a,14,14a,15,16,16a-hexadecahydrocyclopropa[e]pyrrolo[1,2-a][1,4]diazacyclopentadecin-6-yl)carbamate], the EC50 in assay [1] fell in the range of 0.1 to 0.5 nM; in assay [2], 1.01 to 5 nM.

For the compound `CC(C)Oc1ccc(-c2cc(O[C@@H]3C[C@H]4C(=O)N[C@]5(C(=O)NS(=O)(=O)C6(C)CC6)C[C@H]5/C=C\CC[C@@H](C)C[C@@H](C)[C@H](NC(=O)OC5(C(F)(F)F)CCCOC5)C(=O)N4C3)cc(-c3ccccn3)n2)cc1` (stereo partly drawn) [Compound 1051, 3-(trifluoromethyl)tetrahydro-2H-pyran-3-yl ((2R,6S,7R,9R,13aS,14aR,16aS,Z)-2-((6-(4-isopropoxyphenyl)-[2,2′-bipyridin]-4-yl)oxy)-7,9-dimethyl-14a-(((1-methylcyclopropyl)sulfonyl)carbamoyl)-5,16-dioxo-1,2,3,5,6,7,8,9,10,11,13a,14,14a,15,16,16a-hexadecahydrocyclopropa[e]pyrrolo[1,2-a][1,4]diazacyclopentadecin-6-yl)carbamate], the EC50 fell in the range of 0.1 to 0.5 nM in assay [1] and 1.01 to 5 nM in assay [2].
